Test results as given in patent US20240351988A1, “ARYL HYDROCARBON RECEPTOR MODULATORS AND THEIR USE IN THE TREATMENT OF DISEASES AND DISORDERS” (Allianthera (Suzhou) Biopharmaceutical Co., Ltd., priority 2021, published 2024).
“And” between values parts separate entries of the source, which are not always exact repeats. Equal values may be shown once.

Biological target: T1, Human Aryl Hydrocarbon Receptor (AhR) (Homo sapiens, UniProt P35869)
T1 construct: purchased INDIGO Bioscience #1B06001-32; host or cells: AhR Reporter Cell (kit's proprietary reporter cells)
T1 sequence (P35869 11-848): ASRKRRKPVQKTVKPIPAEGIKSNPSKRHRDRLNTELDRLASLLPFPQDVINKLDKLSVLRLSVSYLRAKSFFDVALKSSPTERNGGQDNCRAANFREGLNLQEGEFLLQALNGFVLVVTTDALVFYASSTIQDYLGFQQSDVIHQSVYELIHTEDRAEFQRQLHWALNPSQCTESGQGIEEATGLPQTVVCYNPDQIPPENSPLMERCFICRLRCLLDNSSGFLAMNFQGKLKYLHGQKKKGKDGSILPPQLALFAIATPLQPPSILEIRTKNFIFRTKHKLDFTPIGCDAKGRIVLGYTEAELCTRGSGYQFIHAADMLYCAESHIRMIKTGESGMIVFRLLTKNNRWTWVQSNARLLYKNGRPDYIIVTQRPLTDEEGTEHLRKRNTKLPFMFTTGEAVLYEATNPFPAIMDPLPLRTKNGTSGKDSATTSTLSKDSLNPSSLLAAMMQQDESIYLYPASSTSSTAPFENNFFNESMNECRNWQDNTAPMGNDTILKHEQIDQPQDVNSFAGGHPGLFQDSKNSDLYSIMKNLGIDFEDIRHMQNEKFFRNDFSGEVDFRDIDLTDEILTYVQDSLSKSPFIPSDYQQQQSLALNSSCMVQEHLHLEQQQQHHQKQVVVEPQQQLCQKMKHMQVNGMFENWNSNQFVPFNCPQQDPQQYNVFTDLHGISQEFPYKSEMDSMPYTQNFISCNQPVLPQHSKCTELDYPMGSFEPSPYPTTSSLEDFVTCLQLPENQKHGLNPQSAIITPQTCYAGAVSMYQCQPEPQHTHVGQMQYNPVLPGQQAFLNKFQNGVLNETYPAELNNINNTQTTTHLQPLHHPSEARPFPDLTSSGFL
Experiment: AHR antagonist reporter assay in human cell line (INDIGO AhR Reporter Assay System, kynurenic acid activated)
Assay type: cell-based
Conditions: 200 μM kynurenic acid, 24 hours, luciferase; read-out: AhR Reporter Assay KA Antagonist Mode: IC50
Procedure: The AhR reporter assay was performed following the protocol of the Human Aryl Hydrocarbon Receptor (AhR) Reporter Assay System (INDIGO Bioscience, #1B06001-32). AhR Reporter Cell was thawed and pre-incubated in Cell Recovery Medium (CRM) for 6 hours. The media was then removed and the cells were incubated with Compound Screening Medium (CSM) supplemented with 200 μM kynurenic acid for 24 hours in the absence (negative control) or presence of increasing concentrations of test compounds (typical dilution: […], 3.2 nM, 16 nM, 80 nM, 400 nM, 2 μM, 10 μM in duplicates). For positive inhibition control, cells activated with 200 μM kynurenic acid were incubated in the presence of literature AHR antagonists; alternatively un-activated cells were used as positive inhibition control. Following 24 hours incubation, the media was removed and Luciferase Detection Reagent (LDR) added. The firefly luciferase activity was quantified using a plate reader. Results were normalized by positive and negative controls.

IC50	SMILES
0.1 to 0.4 µM	CN(C)C(=O)CNC(=O)c1cc(-c2ccc(Cl)cc2)nn(-c2cccc(F)c2)c1=O [Compound 2]
> 0.4 µM	CC(=O)N(C)CC(C)NC(=O)c1cc(-c2ccc(Cl)cc2)nn(-c2cccc(F)c2)c1=O (stereo not drawn) [Compound 3]
> 0.4 µM	NC(=O)c1cc(-c2ccc(Cl)cc2)nn(-c2cccc(F)c2)c1=O [Compound 4]
> 0.4 µM	O=C(NC1CNC1)c1cc(-c2ccc(Cl)cc2)nn(-c2cccc(F)c2)c1=O [Compound 5]
> 0.4 µM	COCCNC(=O)c1cc(-c2ccc(Cl)cc2)nn(-c2cccc(F)c2)c1=O [Compound 6]
< 0.1 µM	COCC(C)NC(=O)c1cc(-c2ccc(Cl)cc2)nn(-c2cccc(F)c2)c1=O (stereo not drawn) [Compound 7]
> 0.4 µM	NC(=O)CNC(=O)c1cc(-c2ccc(Cl)cc2)nn(-c2cccc(F)c2)c1=O [Compound 8]
> 0.4 µM	CNC(=O)CNC(=O)c1cc(-c2ccc(Cl)cc2)nn(-c2cccc(F)c2)c1=O [Compound 9]
> 0.4 µM	CC(NC(=O)c1cc(-c2ccc(Cl)cc2)nn(-c2cccc(F)c2)c1=O)C(=O)O (stereo not drawn) [Compound 10]
> 0.4 µM	CC(NC(=O)c1cc(-c2ccc(Cl)cc2)nn(-c2cccc(F)c2)c1=O)C(N)=O (stereo not drawn) [Compound 11]
> 0.4 µM	CC(CN)NC(=O)c1cc(-c2ccc(Cl)cc2)nn(-c2cccc(F)c2)c1=O (stereo not drawn) [Compound 14]
> 0.4 µM	CNCC(C)NC(=O)c1cc(-c2ccc(Cl)cc2)nn(-c2cccc(F)c2)c1=O (stereo not drawn) [Compound 15]
> 0.4 µM	CC(CN(C)C)NC(=O)c1cc(-c2ccc(Cl)cc2)nn(-c2cccc(F)c2)c1=O (stereo not drawn) [Compound 16]
> 0.4 µM	NCCNC(=O)c1cc(-c2ccc(Cl)cc2)nn(-c2cccc(F)c2)c1=O [Compound 17]
> 0.4 µM	CNCCNC(=O)c1cc(-c2ccc(Cl)cc2)nn(-c2cccc(F)c2)c1=O [Compound 18]
> 0.4 µM	CN(C)CCNC(=O)c1cc(-c2ccc(Cl)cc2)nn(-c2cccc(F)c2)c1=O [Compound 19]
> 0.4 µM	CC(=O)N(C)CCNC(=O)c1cc(-c2ccc(Cl)cc2)nn(-c2cccc(F)c2)c1=O [Compound 20]

IC50	SMILES
> 0.4 µM	CNC(=O)c1cc(-c2ccc(Cl)cc2)nn(-c2cccc(F)c2)c1=O [Compound 21]
> 0.4 µM	CN(CCO)C(=O)c1cc(-c2ccc(Cl)cc2)nn(-c2cccc(F)c2)c1=O [Compound 22]
> 0.4 µM	CN(CCN)C(=O)c1cc(-c2ccc(Cl)cc2)nn(-c2cccc(F)c2)c1=O [Compound 23]
> 0.4 µM	O=C(NC1COC1)c1cc(-c2ccc(Cl)cc2)nn(-c2cccc(F)c2)c1=O [Compound 24]
< 0.1 µM	O=C(NC1CCCCNC1=O)c1cc(-c2ccc(Cl)cc2)nn(-c2cccc(F)c2)c1=O (stereo not drawn) [Compound 28]
> 0.4 µM	CC(=O)N1CC(NC(=O)c2cc(-c3ccc(Cl)cc3)nn(-c3cccc(F)c3)c2=O)C1 [Compound 30]
> 0.4 µM	Cn1cc(-n2nc(-c3ccc(Cl)cc3)cc(C(=O)NCC(=O)O)c2=O)cn1 [Compound 33]
> 0.4 µM	Cn1cc(-n2nc(-c3ccc(Cl)cc3)cc(C(=O)NCC(N)=O)c2=O)cn1 [Compound 34]
> 0.4 µM	CNC(=O)CNC(=O)c1cc(-c2ccc(Cl)cc2)nn(-c2cnn(C)c2)c1=O [Compound 35]
> 0.4 µM	CN(C)C(=O)CNC(=O)c1cc(-c2ccc(Cl)cc2)nn(-c2cnn(C)c2)c1=O [Compound 36]
> 0.4 µM	CC(NC(=O)c1cc(-c2ccc(Cl)cc2)nn(-c2cnn(C)c2)c1=O)C(=O)O (stereo not drawn) [Compound 37]
> 0.4 µM	CNCCNC(=O)c1cc(-c2ccc(Cl)cc2)nn(-c2cnn(C)c2)c1=O [Compound 46]
> 0.4 µM	CN(C)CCNC(=O)c1cc(-c2ccc(Cl)cc2)nn(-c2cnn(C)c2)c1=O [Compound 47]
> 0.4 µM	COC[C@H](C)NC(=O)c1cc(-c2ccc(S(C)(=O)=O)cc2)nn(-c2cnn(C)c2)c1=O [Compound 66]
> 0.4 µM and < 0.1 µM	COC[C@H](C)NC(=O)c1cc(-c2ccc(C)cn2)nn(-c2cnn(C)c2)c1=O [Compound 67]
0.1 to 0.4 µM	COC[C@H](C)NC(=O)c1cc(-c2ccc(C)cc2)nn(-c2cnn(C)c2)c1=O [Compound 68]
